pEC50, pIC50: −log10 of the molar value.
Experiments:
[1] = target: T1, HCV NS3/4A protease complex, BMS strain (UniProt P27958, species not given/STRAIN_BMS); assay: FRET peptide assay to monitor HCV NS3/4A proteolytic activity (BMS strain); assay type: biochemical, HCV genotype 1a; conditions: NS3/4A BMS strain; read-out: Activity Range (IC50)
T1 construct: given for H77 and J4L6S, not expressly for BMS; fused on or other part: three-lysine solubilising tail at the end of NS4A (given for the H77 and J4L6S constructs)
Source text: HCV NS3 protease complexes, derived from the BMS strain, H77 strain or J4L6S strain, were generated, as described below. These purified recombinant proteins were generated for use in a homogeneous assay (see below) to provide an indication of how effective compounds of the present disclosure would be in inhibiting HCV NS3 proteolytic activity.
Serum from an HCV-infected patient was obtained from Dr. T. Wright, San Francisco Hospital. An engineered full-length cDNA (compliment deoxyribonucleic acid) template of the HCV genome (BMS strain) was constructed from DNA fragments obtained by reverse transcription-PCR(RT-PCR) of serum RNA (ribonucleic acid) and using primers selected on the basis of homology between other genotype 1a strains. From the determination of the entire genome sequence, a genotype 1a was assigned to the HCV isolate according to the classification of Simmonds et al. (See P Simmonds, K A Rose, S Graham, S W Chan, F McOmish, B C Dow, E A Follett, P L Yap and H Marsden, J. Clin. Microbiol., 31(6), 1493-1503 (1993)). […] The infectious clones, H77 (1a genotype) and J4L6S (1b genotype) were obtained from R. Purcell (NIH) and the sequences are published in Genbank (AAB67036, see Yanagi, M., Purcell, R. H., Emerson, S. U. and Bukh, J. Proc. Natl. Acad. Sci. U.S.A. 94(16), 8738-8743 (1997); AF054247, see Yanagi, M., St Claire, M., Shapiro, M., Emerson, S. U., Purcell, R. H. and Bukh, J, Virology 244 (1), 161-172. (1998)).
NS3/4A protease complex-containing fractions were pooled and loaded on a desalting column Superdex-S200 pre-equilibrated with buffer D (25 mM HEPES, pH 7.5, 20% glycerol, 300 mM NaCl, 0.2% Triton X-100, 10 mM βME). Sample was loaded at a flow rate of 1 mL/min. NS3/4A protease complex-containing fractions were pooled and concentrated to approximately 0.5 mg/ml. The purity of the NS3/4A protease complexes, derived from the BMS, H77 and J4L6S strains, were judged to be greater than 90% by SDS-PAGE and mass spectrometry analyses. The enzyme was stored at −80° C., thawed on ice and diluted prior to use in assay buffer.
The purpose of this in vitro assay was to measure the inhibition of HCV NS3 protease complexes, derived from the BMS strain, H77 strain or J4L6S strain, as described above, by compounds of the present disclosure. This assay provides an indication of how effective compounds of the present disclosure would be in inhibiting HCV NS3 proteolytic activity.
In order to monitor HCV NS3/4A protease activity, an NS3/4A peptide substrate was used. The substrate was RET S1 (Resonance Energy Transfer Depsipeptide Substrate; AnaSpec, Inc. cat #22991)(FRET peptide), described by Taliani et al. in Anal. Biochem. 240(2):60-67 (1996). The sequence of this peptide is loosely based on the NS4A/NS4B natural cleavage site for the HCV NS3 protease except there is an ester linkage rather than an amide bond at the cleavage site. The peptide also contains a fluorescence donor, EDANS, near one end of the peptide and an acceptor, DABCYL, near the other end. The fluorescence of the peptide is quenched by […] resonance energy transfer (RET) between the donor and the acceptor, but as the NS3 protease cleaves the peptide the products are released from RET quenching and the fluorescence of the donor becomes apparent.
The peptide substrate was incubated with one of the three recombinant NS3/4A protease complexes, in the absence or presence of a compound of the present disclosure. The inhibitory effects of a compound were determined by monitoring the formation of fluorescent reaction product in real time using a Cytofluor Series 4000.
Assay buffer: 50 mM HEPES, pH 7.5; 0.15 M NaCl; 0.1% Triton; 15% Glycerol; 10 mM βME. Substrate: 2 μM final concentration (from a 2 mM stock solution in DMSO stored at −20° C.). HCV NS3/4A protease type 1a (1b), 2-3 nM final concentration (from a 5 μM stock solution in 25 mM HEPES, pH 7.5, 20% glycerol, 300 mM NaCl, 0.2% Triton-X100, 10 mM βME). […]

[2] = test system: HCV replicon in HUH-7 cells; assay: HCV replicon FRET assay; assay type: cell-based, HCV strain 1b; conditions: Hepatitis C virus, Huh-7, read-out: Activity Range (EC50)
Source text: An HCV replicon whole cell system was established as described by Lohmann V, Korner F, Koch J, Herian U, Theilmann L, Bartenschlager R., Science 285(5424): 110-3 (1999). This system enabled us to evaluate the effects of our HCV Protease compounds on HCV RNA replication. Briefly, using the HCV strain 1b sequence described in the Lohmann paper (Assession number: AJ238799), an HCV cDNA was synthesized by Operon Technologies, Inc. (Alameda, Calif.), and the full-length replicon was then assembled in plasmid pGem9zf(+) (Promega, Madison, Wis.) using standard molecular biology techniques. The replicon consists of (i) the HCV 5′ UTR fused to the first 12 amino acids of the capsid protein, (ii) the neomycin phosphotransferase gene (neo), (iii) the IRES from encephalomyocarditis virus (EMCV), and (iv) HCV NS3 to NS5B genes and the HCV 3′ UTR. Plasmid DNAs were linearized with ScaI and RNA transcripts were synthesized in vitro using the T7 MegaScript transcription kit (Ambion, Austin, Tex.) according to manufacturer's directions. In vitro transcripts of the cDNA were transfected into the human hepatoma cell line, HUH-7. […] Resulting cell lines were characterized for positive and negative strand RNA production and protein production over time.
The HCV replicon FRET assay was developed to monitor the inhibitory effects of compounds described in the disclosure on HCV viral replication. HUH-7 cells, constitutively expressing the HCV replicon, were grown in Dulbecco's Modified Eagle Media (DMEM) (Gibco-BRL) containing 10% Fetal calf serum (FCS) (Sigma) and 1 mg/ml G418 (Gibco-BRL). Cells were seeded the night before (1.5×10^4 cells/well) in 96-well tissue-culture sterile plates. Compound and no compound controls were prepared in DMEM containing 4% FCS, 1:100 Penicillin/Streptomysin (Gibco-BRL), 1:100 L-glutamine and 5% DMSO in the dilution plate (0.5% DMSO final concentration in the assay). Compound/DMSO mixes were added to the cells and incubated for 4 days at 37° C. After 4 days, cells were first assessed for cytotoxicity using alamar Blue (Trek Diagnotstic Systems) for a CC50 reading. The toxicity of compound (CC50) was determined by adding 1/10th volume of alamar Blue to the media incubating the cells. After 4 h, the fluorescence signal from each well was read, with an excitation wavelength at 530 nm and an emission wavelength of 580 nm, using the Cytofluor Series 4000 (Perspective Biosystems). Plates were then rinsed thoroughly with Phosphate-Buffered Saline (PBS) (3 times 150 μl). The cells were lysed with 25 μl of a lysis assay reagent containing an HCV protease substrate (5× cell Luciferase cell culture lysis reagent (Promega #E153A) diluted to 1× with distilled water, NaCl added to 150 mM final, the FRET peptide substrate (as described for the enzyme assay above) diluted to 10 μM final from a 2 mM stock in 100% DMSO. The plate was then placed into the Cytofluor 4000 instrument which had been set to 340 nm excitation/490 nm emission, automatic mode for 21 cycles and the plate read in a kinetic mode. EC50 determinations were carried out as described for the IC50 determinations.

T1 sequence (P27958 1027-1657, change not shown, one chain of several): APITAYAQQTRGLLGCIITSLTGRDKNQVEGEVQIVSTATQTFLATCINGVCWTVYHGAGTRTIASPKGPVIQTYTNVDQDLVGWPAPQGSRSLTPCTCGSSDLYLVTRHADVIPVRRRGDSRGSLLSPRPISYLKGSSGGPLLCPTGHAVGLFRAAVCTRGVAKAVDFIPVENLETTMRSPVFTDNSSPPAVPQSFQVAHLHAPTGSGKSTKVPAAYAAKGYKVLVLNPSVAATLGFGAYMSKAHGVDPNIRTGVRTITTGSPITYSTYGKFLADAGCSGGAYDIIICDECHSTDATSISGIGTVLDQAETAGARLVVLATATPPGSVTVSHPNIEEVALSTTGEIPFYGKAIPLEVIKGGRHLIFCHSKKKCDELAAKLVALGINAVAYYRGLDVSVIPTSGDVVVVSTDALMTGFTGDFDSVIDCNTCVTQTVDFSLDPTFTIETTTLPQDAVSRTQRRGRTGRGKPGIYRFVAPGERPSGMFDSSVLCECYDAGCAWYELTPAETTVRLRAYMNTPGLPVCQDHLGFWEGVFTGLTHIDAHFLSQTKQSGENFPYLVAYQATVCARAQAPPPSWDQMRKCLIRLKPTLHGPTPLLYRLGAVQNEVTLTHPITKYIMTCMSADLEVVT

Structure (SMILES) | pIC50 [1] | pEC50 [2]
C=C[C@@H]1C[C@]1(NC(=O)[C@@H]1C[C@@H](OC(=O)c2ccc(OC)cc2)CN1C(=O)[C@@H](NC(=O)OC(C)(C)C)C(C)(C)C)C(=O)NS(=O)(=O)C1CC1 [Compound 3] | 7.30 to 9.00 | 6.70 to 7.60
C=C[C@@H]1C[C@]1(NC(=O)[C@@H]1C[C@@H](OC(=O)c2ccc(F)cc2)CN1C(=O)[C@@H](NC(=O)OC(C)(C)C)C(C)(C)C)C(=O)NS(=O)(=O)C1CC1 [Compound 2] | 7.30 to 9.00 | 6.00 to 6.70
C=C[C@@H]1C[C@]1(NC(=O)[C@@H]1C[C@@H](OC(=O)c2ccc(-c3ccccc3)cc2)CN1C(=O)[C@@H](NC(=O)OC(C)(C)C)C(C)(C)C)C(=O)NS(=O)(=O)C1CC1 [Compound 4] | 7.30 to 9.00 | 6.00 to 6.70
C=C[C@@H]1C[C@]1(NC(=O)[C@@H]1C[C@@H](OC(=O)c2ccc3ncccc3c2)CN1C(=O)[C@@H](NC(=O)OC(C)(C)C)C(C)(C)C)C(=O)NS(=O)(=O)C1CC1 [Compound 5] | 7.30 to 9.00 | 6.70 to 7.60
C=C[C@@H]1C[C@]1(NC(=O)[C@@H]1C[C@@H](OC(=O)c2ccc3sccc3c2)CN1C(=O)[C@@H](NC(=O)OC(C)(C)C)C(C)(C)C)C(=O)NS(=O)(=O)C1CC1 [Compound 6] | 7.30 to 9.00 | 6.70 to 7.60
C=C[C@@H]1C[C@]1(NC(=O)[C@@H]1C[C@@H](OC(=O)c2ccc3c(c2)CCO3)CN1C(=O)[C@@H](NC(=O)OC(C)(C)C)C(C)(C)C)C(=O)NS(=O)(=O)C1CC1 [Compound 7] | 7.30 to 9.00 | 6.70 to 7.60
